Measured values reported in ChEMBL document CHEMBL1201862, “PubChem BioAssay data set” (2004).
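Cultured in 96-well plates, cells were exposed to test compound for 48 hours across five concentrations. Here, GI50 denotes the concentration required for 50% inhibition of growth.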 Activity calls are given as the source filed them. Cut-off read from the data, not from the text of the source: active = GI50 up to about 1.1 µM and inactive = higher.

Legend:
Assay in all cases: inhibition of tumour cell growth, NCI panel, 48 h
[1] = test system: HL-60
[2] = test system: NCI-H460
[3] = test system: 786-0
[4] = test system: A549
[5] = test system: SF-268
[6] = test system: HCT-116
[7] = test system: EKVX
[8] = test system: SK-MEL-5
[9] = test system: U-251
[10] = test system: ACHN
[11] = test system: HCC 2998
[12] = test system: UO-31
[13] = test system: SNB-75
[14] = test system: RXF 393
[15] = test system: MOLT-4
[16] = test system: HCT-15

Row | Compound | GI50 [1] | GI50 [2] | GI50 [3] | GI50 [4] | GI50 [5] | GI50 [6] | GI50 [7] | GI50 [8] | GI50 [9] | GI50 [10] | GI50 [11] | GI50 [12] | GI50 [13] | GI50 [14] | GI50 [15] | GI50 [16]
1 | COc1nc2c(nc(N)n2C2OC(CO)C(O)C(O)C2O)c(=O)n1C (centres undefined) | > 100 µM (inactive) | > 100 µM (inactive) | > 100 µM (inactive) | > 100 µM (inactive) | > 100 µM (inactive) | > 100 µM (inactive) | > 100 µM (inactive) | > 100 µM (inactive) | > 100 µM (inactive) | > 100 µM (inactive) | > 100 µM (inactive) | > 100 µM (inactive) | > 100 µM (inactive) | > 100 µM (inactive) |  | 
2 | Cc1cccc(NC(=O)CSc2nnc(-c3ccc(/N=C\c4ccc(Cl)cc4)cc3)o2)c1 | > 100 µM (inactive) | > 100 µM (inactive) | > 100 µM (inactive) | > 100 µM (inactive) | > 100 µM (inactive) | > 100 µM (inactive) | > 100 µM (inactive) | > 100 µM (inactive) | > 100 µM (inactive) | > 100 µM (inactive) |  | > 100 µM (inactive) | > 100 µM (inactive) | 60.4 µM (inactive) | > 100 µM (inactive) | > 100 µM
3 | CCOC(=O)[C@@]1(C)C=C2O[C@@H]3OC4(CCCCC4)O[C@@H]3C2=C2C(O)=CC=C(O)[C@]21C(=O)OC | 33 µM (inactive) | > 68.1 µM (inactive) | > 68.1 µM (inactive) | > 68.1 µM (inactive) | > 68.1 µM (inactive) | > 68.1 µM (inactive) | > 68.1 µM (inactive) | > 68.1 µM (inactive) | > 68.1 µM (inactive) | > 68.1 µM (inactive) | > 68.1 µM (inactive) | > 68.1 µM (inactive) | > 68.1 µM (inactive) |  | 33.7 µM (inactive) | > 68.1 µM
4 | CCOC(=O)NC(=O)c1cn(CCCCCCCCCCC(=O)NCCCN2CCN(CCCNC(=O)CCCCCCCCCCn3cc(C(=O)NC(=O)OCC)c(=O)[nH]c3=O)CC2)c(=O)[nH]c1=O | > 100 µM (inactive) | > 100 µM (inactive) | > 100 µM (inactive) | > 100 µM (inactive) | > 100 µM (inactive) | > 100 µM (inactive) |  |  | > 100 µM (inactive) | > 100 µM (inactive) | > 100 µM (inactive) | > 100 µM (inactive) | > 100 µM (inactive) |  | > 100 µM (inactive) | > 100 µM
5 | CCOC(=O)N(c1ccccc1)N(CC)C(=O)/C(C)=N/Nc1ccc([N+](=O)[O-])cc1 | 11 µM (inactive) |  | 17.1 µM (inactive) | 16.7 µM (inactive) | 17.2 µM (inactive) | 14.1 µM (inactive) | 18.6 µM (inactive) |  | 15 µM (inactive) | 17.7 µM (inactive) | 18 µM (inactive) | 14.8 µM (inactive) | 18.1 µM (inactive) | 13 µM (inactive) | 17.7 µM (inactive) | 16 µM
6 | c1cc(C2O[C@H]3CCCN3[C@@H]2c2ccncc2)ccn1 (some centres undefined) |  | > 100 µM (inactive) | > 100 µM (inactive) | > 100 µM (inactive) | > 100 µM (inactive) | > 100 µM (inactive) | > 100 µM (inactive) | > 100 µM (inactive) | > 100 µM (inactive) | > 100 µM (inactive) |  | > 100 µM (inactive) | > 100 µM (inactive) | > 100 µM (inactive) | > 100 µM (inactive) | > 100 µM
7 | COc1ccc(C(O)c2cc(OC)c(OC)c(OC)c2)cc1 (centres undefined) | 6.11 µM (inactive) | 31.6 µM (inactive) | 46.8 µM (inactive) | 17.1 µM (inactive) | 39 µM (inactive) | 24.2 µM (inactive) | 43.9 µM (inactive) | 17 µM (inactive) | 34 µM (inactive) | 69.8 µM (inactive) |  | 30.6 µM (inactive) |  | 10.1 µM (inactive) | 16.9 µM (inactive) | 8.77 µM
